# Measurements published in US20150209315A1 (Cumberland Pharmaceuticals, priority 2009, published 2015).
# “And” between values parts separate entries of the source, which are not always exact repeats. Equal values may be shown once.
# Assays:
# Type in all cases: in vivo, human
# [1] = system: post-operative adult patients; experiment: Example 1: treatment failures; details: ITT
# Experimental: Eligible patients were randomized to one of the three treatment groups. All patients were able (but were not required) to receive morphine until approximately 45 minutes before the end of the surgical procedure. After that time, only fentanyl was allowed until the end of the operation. The first dose of ibuprofen was administered at approximately the initiation of skin closure. […] Other than ibuprofen or placebo, only morphine was administered for pain. […] Additional morphine could be administered at the discretion of the treating physician if adequate pain control had still not been achieved. Patients given non-morphine analgesics were classified as treatment failures. Treatment failures were not replaced. A treatment failure was defined as a patient that required narcotic pain medication, other than morphine, or non-narcotic medications including the use of another NSAID through the treatment period. If other narcotics (other than morphine) or NSAIDS were started, ibuprofen/placebo was discontinued. In the ITT population, there was a numerical trend but not a statistically significant difference for fewer treatment failures in the ibuprofen groups compared to the placebo group: […]
# [2] = system: patients undergoing orthopedic surgical procedures; experiment: Example 3: pain with movement measured with VAS; details: 800 mg, immediately post-surgery
# Experimental: Efficacy was measured by comparing the reduction in morphine use over the 24 hours immediately post surgery. Efficacy was measured by reduction in the requirement for the narcotic analgesic, morphine, in the 24 hours post surgery.
# The Clinical Trial Material (“CTM”) was mixed in 250 mL normal saline. Saline was chosen as the control group (placebo) for this study, to ensure blinding and allow for analysis of treatment effect.
# The study participants were randomized based on criteria for an efficacy evaluable population (EEP) versus an intent to treat population (ITT).
# Eligible patients were randomized to one of the two treatment groups.
# Patients were evaluated and compared for morphine requirements between the active doses and placebo using analysis of variance and covariance procedures at an overall alpha level of 0.05. Secondary efficacy parameters were also evaluated and compared among the treatment groups using appropriate statistical methods described in the statistical analysis section of the protocol. For the adverse events, instead of using an unadjusted Chi-square test and a Cochran-Mantel-Haenszel test adjusted for center to compare treatment groups with respect to the numbers of patients reporting AEs, a Fisher's exact test was used to compare treatment groups for any AE that was reported by five or more patients.
# [3] = system: post-operative adult patients; experiment: Example 2: treatment failures; details: 800 mg; ITT
# Experimental: Eligible patients were randomized to one of the two treatment groups. All patients were able (but were not required) to receive morphine until approximately 45 minutes before the end of the surgical procedure. After that time, only fentanyl was allowed until the end of the operation. The first dose of ibuprofen was administered at approximately the initiation of skin closure. […] Other than ibuprofen or placebo, only morphine was administered for pain. […] Additional morphine could be administered at the discretion of the treating physician if adequate pain control had still not been achieved. Patients given non-morphine analgesics were classified as treatment failures. Treatment failures were not replaced. A treatment failure was defined as a patient that required narcotic pain medication, other than morphine, or non-narcotic medications including the use of another NSAID through the treatment period. If other narcotics (other than morphine) or NSAIDS were started, CTM was discontinued.
# [4] = system: post-operative adult patients; experiment: Example 2: patient self-assessment of pain, VAS at rest; details: 800 mg
# [5] = system: post-operative adult patients; experiment: Example 1: morphine usage in the 24 hours following surgery
# Experimental: The reference product, dose and mode of administration was normal saline, 100 ml, intravenous. Saline was chosen as the control group (placebo) for this study, to ensure blinding and allow for analysis of treatment effect. The duration of treatment was up to 5 days post surgery. […] Groups were stratified according to two age groups: <45 and >45 to 70 years of age and two weight groups: <75 kg and >75 kg of weight. The study participants were randomized based on criteria for an efficacy evaluable population (EEP) versus an intent to treat population (ITT). The ITT included all patients who were randomized and received at least a partial dose of ibuprofen. […] Eligible patients were randomized to one of the three treatment groups. All patients were able (but were not required) to receive morphine until approximately 45 minutes before the end of the surgical procedure. After that time, only fentanyl was allowed until the end of the operation. The first dose of ibuprofen was administered at approximately the initiation of skin closure. […] Other than ibuprofen or placebo, only morphine was administered for pain. […] Additional morphine could be administered at the discretion of the treating physician if adequate pain control had still not been achieved. Patients given non-morphine analgesics were classified as treatment failures. Treatment failures were not replaced. […] Secondary efficacy parameters were also evaluated and compared among the treatment groups using appropriate statistical methods described in the statistical analysis section of the protocol. Safety information was compared between the treatment groups using Chi-Square or Cochran-Mantel-Haenszel test. Demographic, background and baseline information among the treatment groups was also described. […] Efficacy analyses were performed on the Intent to Treat (ITT) population and the Efficacy Evaluable Population (EEP). In addition a subset of EEP patients who underwent abdominal hysterectomies (AH) were analyzed separately to evaluate efficacy in a more homogenous population.
# [6] = 400 mg, AH (abdominal hysterectomies)
# [7] = 800 mg, AH (abdominal hysterectomies)
compound,measurement,setting,value
"CC(C)Cc1ccc(C(C)C(=O)O)cc1 (stereo not drawn) [Ibuprofen, 2-(4-isobutylphenyl) propionic acid]","treatment failures, number of patients",[1]; 400 mg,7
same,"treatment failures, percent of patients",[1]; 400 mg,5%
same,"treatment failures, number of patients",[1]; 800 mg,4
same,"treatment failures, percent of patients",[1]; 800 mg,3%
same,decrease in the mean VAS with movement,[2]; AT,13.9%
same,decrease in the mean VAS with movement,[2]; efficacy evaluable,13.6%
same,decrease in the mean VAS with movement,[2]; intent-to-treat,14.3%
same,"treatment failures, number of patients",[3],7
same,"treatment failures, percent of patients",[3],4%
same,VAS Score measured at Rest (median),"[4]; EEP, 1-Hour",8.0
same,"VAS Score measured at Rest, % Reduction vs Placebo","[4]; EEP, 1-Hour",0.0%
same,VAS Score measured at Rest (median),"[4]; EEP, 3-Hour",5.0
same,"VAS Score measured at Rest, % Reduction vs Placebo","[4]; EEP, 3-Hour",16.7%
same,VAS Score measured at Rest (median),"[4]; EEP, 6-Hour",4.0
same,"VAS Score measured at Rest, % Reduction vs Placebo","[4]; EEP, 6-Hour",20.0%
same,VAS Score measured at Rest (median),"[4]; EEP, 9-Hour",3.0
same,VAS Score measured at Rest (median),"[4]; EEP, 12-Hour",2.5
same,"VAS Score measured at Rest, % Reduction vs Placebo","[4]; EEP, 12-Hour",16.7%
same,VAS Score measured at Rest (median),"[4]; EEP, 15-Hour",2.0
same,"VAS Score measured at Rest, % Reduction vs Placebo","[4]; EEP, 15-Hour",33.3%
same,VAS Score measured at Rest (median),"[4]; EEP, 18-Hour",2.0
same,"VAS Score measured at Rest, % Reduction vs Placebo","[4]; EEP, 18-Hour",33.3%
same,VAS Score measured at Rest (median),"[4]; EEP, 21-Hour",1.0
same,"VAS Score measured at Rest, % Reduction vs Placebo","[4]; EEP, 21-Hour",66.7%
same,VAS Score measured at Rest (median),"[4]; EEP, 24-Hour",2.0
same,"VAS Score measured at Rest, % Reduction vs Placebo","[4]; EEP, 24-Hour",33.3%
same,VAS Score measured at Rest (median),"[4]; ITT, 1-Hour",8.0
same,"VAS Score measured at Rest, % Reduction vs Placebo","[4]; ITT, 1-Hour",0.0%
same,VAS Score measured at Rest (median),"[4]; ITT, 3-Hour",5.7
same,"VAS Score measured at Rest, % Reduction vs Placebo","[4]; ITT, 3-Hour",5.0%
same,VAS Score measured at Rest (median),"[4]; ITT, 6-Hour",4.0
same,"VAS Score measured at Rest, % Reduction vs Placebo","[4]; ITT, 6-Hour",11.1%
same,VAS Score measured at Rest (median),"[4]; ITT, 9-Hour",3.0
same,VAS Score measured at Rest (median),"[4]; ITT, 12-Hour",2.7
same,"VAS Score measured at Rest, % Reduction vs Placebo","[4]; ITT, 12-Hour",20.6%
same,VAS Score measured at Rest (median),"[4]; ITT, 15-Hour",2.0
same,"VAS Score measured at Rest, % Reduction vs Placebo","[4]; ITT, 15-Hour",31.0%
same,VAS Score measured at Rest (median),"[4]; ITT, 18-Hour",2.0
same,"VAS Score measured at Rest, % Reduction vs Placebo","[4]; ITT, 18-Hour",31.0%
same,VAS Score measured at Rest (median),"[4]; ITT, 21-Hour",2.0
same,"VAS Score measured at Rest, % Reduction vs Placebo","[4]; ITT, 21-Hour",33.3%
same,VAS Score measured at Rest (median),"[4]; ITT, 24-Hour",2.0
same,"VAS Score measured at Rest, % Reduction vs Placebo","[4]; ITT, 24-Hour",31.0%
same,"Morphine Usage in the 24 Hours Following Surgery, % Reduction vs. PBO",[5]; [6],15.9% and 16%
same,"Morphine Usage in the 24 Hours Following Surgery, Median",[5]; [6],45.00
same,"Morphine Usage in the 24 Hours Following Surgery, % Reduction vs. PBO","[5]; 400 mg, AH (abdominal hysterectomies), listed as IVIb",15.89%
same,"Morphine Usage in the 24 Hours Following Surgery, % Reduction vs. PBO","[5]; 400 mg, EEP",4.4%
same,"Morphine Usage in the 24 Hours Following Surgery, Median","[5]; 400 mg, EEP",43.00
same,"Morphine Usage in the 24 Hours Following Surgery, % Reduction vs. PBO","[5]; 400 mg, EEP, listed as IVIb",4.44%
same,"Morphine Usage in the 24 Hours Following Surgery, % Reduction vs. PBO","[5]; 400 mg, ITT",2.76%
same,"Morphine Usage in the 24 Hours Following Surgery, Median","[5]; 400 mg, ITT",44.00
same,"Morphine Usage in the 24 Hours Following Surgery, % Reduction vs. PBO",[5]; [7],41.1% and 41%
same,"Morphine Usage in the 24 Hours Following Surgery, Median",[5]; [7],31.50
same,"Morphine Usage in the 24 Hours Following Surgery, % Reduction vs. PBO","[5]; 800 mg, AH (abdominal hysterectomies), listed as IVIb",41.12%
same,"Morphine Usage in the 24 Hours Following Surgery, Median","[5]; 800 mg, EEP",33.50
same,"Morphine Usage in the 24 Hours Following Surgery, % Reduction vs. PBO","[5]; 800 mg, EEP, listed as IV ibuprofen",26%
same,"Morphine Usage in the 24 Hours Following Surgery, % Reduction vs. PBO","[5]; 800 mg, EEP, listed as IVIb",25.56%
same,"Morphine Usage in the 24 Hours Following Surgery, % Reduction vs. PBO","[5]; 800 mg, ITT",21.6%
same,"Morphine Usage in the 24 Hours Following Surgery, Median","[5]; 800 mg, ITT",35.50
same,"Morphine Usage in the 24 Hours Following Surgery, % Reduction vs. PBO","[5]; 800 mg, ITT, listed as IVIb",21.55%
